Patent US9732065B2, “Cyclic aminomethyl pyrimidine derivative” (Sumitomo Dainippon Pharma Co., Ltd., priority 2013, dated 2017)

What was measured:
[1] = molecular target: T1, human adrenergic α1A receptor (Homo sapiens, UniProt P35348); test: Agonistic/antagonistic activity in G protein dependent pathway (aequorin intracellular calcium luminescence), α1A; format: cell-based; settings: for Maximal activity on each receptor (%): α1A: 10 μM adrenaline = 100%; for inhibition at 0.1 µM / inhibition at 1 µM: against 10 μM endogenous ligand, read-out: Inhibitory activity on each receptor (%): α1A
T1 construct: expressed in transfected cells; host or cells: CHO-K1 or HEK293 cells
T1 sequence (P35348 1-466): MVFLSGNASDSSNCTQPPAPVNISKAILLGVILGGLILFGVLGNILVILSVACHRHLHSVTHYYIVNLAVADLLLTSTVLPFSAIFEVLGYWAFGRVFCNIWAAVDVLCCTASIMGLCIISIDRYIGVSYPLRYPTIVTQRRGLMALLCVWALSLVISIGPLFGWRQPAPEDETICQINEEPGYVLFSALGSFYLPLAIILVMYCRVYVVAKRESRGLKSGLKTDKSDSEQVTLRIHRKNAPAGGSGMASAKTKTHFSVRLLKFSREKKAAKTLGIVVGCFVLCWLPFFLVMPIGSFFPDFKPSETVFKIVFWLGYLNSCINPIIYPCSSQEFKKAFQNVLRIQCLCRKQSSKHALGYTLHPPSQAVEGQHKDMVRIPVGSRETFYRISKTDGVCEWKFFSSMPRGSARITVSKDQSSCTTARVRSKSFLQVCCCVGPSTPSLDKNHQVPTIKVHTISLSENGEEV
Description: Plasmids encoding each receptor, aequorin and Gα16 were prepared, and the plasmids were transfected into CHO cells (Chinese Hamster Ovary cells) or HEK293 cells (Human Embryonic Kidney 293 cells) to prepare expressing cell lines.
The agonistic or antagonistic activity of the present compound in the G protein dependent pathway was evaluated on the basis of intracellular calcium levels as follows. CHO-K1 or HEK293 cell lines transfected with D2, D4, α1A, or α2A receptor genes were seeded in a 384-well plate, and incubated in a CO2 incubator at 37° C. for 24 hours, and then a solution of the present compound in DMSO was added into cells preloaded with coelenterazine to measure the change in luminescent signals with a FDSS (Hamamatsu Photonics K.K.). […] The agonistic activity of the present compound was calculated according to the measured luminescent signals, as the maximal activity (Emax) of the present compound. On the other hand, the antagonistic activity of the present compound was calculated according to the luminescent signals in wells with 10 μM of an endogenous ligand alone defined as 100%, as the inhibitory activity of the present compound to an endogenous ligand. EC50 value was calculated as the concentration of the present compound required to achieve a 50% response, and IC50 was calculated as the concentration of the present compound required to achieve a 50% inhibition of the Emax of an endogenous ligand.

[2] = molecular target: T2, Human dopamine D4 receptor (Homo sapiens, UniProt P21917); test: G protein independent pathway: β-arrestin recruit ability (PathHunter β-galactosidase); format: cell-based; parameters: expressed in transfected cells; settings: β-arrestin recruitment, 90 minutes; 10 μM dopamine = 100%
T2 sequence (P21917 1-419): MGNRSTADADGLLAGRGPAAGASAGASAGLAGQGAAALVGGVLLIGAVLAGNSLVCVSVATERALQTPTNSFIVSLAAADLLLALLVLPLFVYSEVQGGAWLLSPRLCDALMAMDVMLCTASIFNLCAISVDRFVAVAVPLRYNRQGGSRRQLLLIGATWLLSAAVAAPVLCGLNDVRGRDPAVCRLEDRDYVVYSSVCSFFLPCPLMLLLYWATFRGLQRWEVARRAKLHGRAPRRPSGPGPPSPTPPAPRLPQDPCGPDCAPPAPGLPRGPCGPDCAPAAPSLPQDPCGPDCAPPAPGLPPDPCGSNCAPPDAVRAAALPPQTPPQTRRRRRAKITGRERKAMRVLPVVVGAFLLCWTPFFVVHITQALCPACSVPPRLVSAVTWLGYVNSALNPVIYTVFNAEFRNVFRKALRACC
Description: The activation of the G protein independent pathway was evaluated on the basis of the recruit ability of β-arrestin as follows. Cell lines transfected with D4 receptor genes were seeded in a 384-well plate, and incubated in a CO2 incubator at 37° C. for 24 hours, a solution of the present compound in DMSO was added into the cells, and then the cells were left at 37° C. for 90 minutes. Buffer containing β-galactosidase reaction substance (PathHunter Cell Assay Buffer, DiscoverRx) was added thereto, and luminescent signals in the wells were measured with a FDSS (Hamamatsu Photonics K.K.). […] The maximal activity (Emax) of the present compound was calculated according to the measured luminescent signals. EC50 value was calculated as the concentration of the present compound required to achieve a 50 response.

[3] = test system: rat after prenatal exposure to valproic acid; test: Social impairments in rat after prenatal exposure to valproic acid, three-chamber test; format: in vivo; settings: oral, 1 mg/kg
Text: A rat exposed to valproic acid on the 12.5 days of fetal life has been widely used as an autistic rat model with high validity. It is known that the rat has a social cognitive disorder through the three-chamber test which is a test for evaluating sociability. Thus, the rat was pretreated with the present compound to evaluate the improved effect of the present compound on social cognition. In this study, a sociability cage (600 mm×400 mm×220 mm, Muromachi Kikai Co., Ltd.) was used. Specifically, a 3-week-old rat after prenatal exposure to valproic acid received the oral administration of the present compound, and the time that the rat stayed in close to another rat side or a novel object was measured for 10 minutes from 30 minutes after the administration. The ratio of the time for another rat side to the time for a novel object that is defined as 100% was calculated to evaluate the improvement ratio (%) of the present compound on the basis of the result of the vehicle-treated group. The improvement ratio after the oral administration of the compound of Example 5 (1 mg/kg) was 27.6%.

SHR rat = test: Inattention in SHR rat, Y-shaped maze test; format: in vivo; settings: oral, 1 mg/kg
Description: It is known that a SHR rat has a lower spontaneous alternation behavior ratio than a WKY rat which is a background animal through the Y-shaped maze test. Thus, the SHR rat was pretreated with the present compound to evaluate the pharmacological effect of the present compound on attention function. Specifically, a 4-week-old SHR rat received the oral administration of the present compound, and a spontaneous alternation behavior ratio in the rat was measured for 8 minutes from 30 minutes after the administration. The improved spontaneous alternation behavior ratio (%) was calculated as a numerical value on the basis of the spontaneous alternation behavior ratio in the vehicle administration group. In this study, a Y-shaped maze device (black acrylic: 450 mm×100 mm×350 mm, Horikawa Manufacturing Co., Ltd.) was used.

| SMILES | Maximal activity on each receptor (%): α1A ([1]; 0.1 μM) | inhibition at 0.1 µM ([1]; 0.1 μM) | Maximal activity on each receptor (%): α1A ([1]; 1 μM) | inhibition at 1 µM ([1]; 1 μM) | Maximal activity on D4 receptor (%) [2] | time that the rat stayed in close to another rat side [3] | improvement ratio (%) ([3]; time for another rat side vs novel object, relative to vehicle) | spontaneous alternation behavior ratio (SHR rat) |
| --- | --- | --- | --- | --- | --- | --- | --- | --- |
| Cc1ncc(CN2CCC(c3cncc(F)c3)CC2)cn1 [Example 33, 5-[4-(5-Fluoropyridin-3-yl)piperidin-1-ylmethyl]-2-methylpyrimidine] | 0.4% | -34% | 0.85% | -5.4% | 21% |  |  |  |
| Nc1ncc(CN2CCC(c3cccnc3)CC2)cn1 [Example 37] | 0.31% | -22% | 0.44% | -14% | 9% |  |  |  |
| Cc1ncc(CN2CCC(c3ccccn3)CC2)c(N)n1 [Example 5, 2-Methyl-5-[4-(pyridin-2-yl)piperidin-1-ylmethyl]pyrimidin-4-amine] | 2.1% | 2.1% | −0.1% | -1.7% | 11% | significantly increased | 27.6% | significantly improved |
